Reference: patent publication US9579296B2, “Compositions and methods for transdermal delivery of hormones and other medicinal agents” (Teikoku Pharma USA, Inc., priority 2012, dated 2017)
Where two headings read alike, the source gives them in different places.

Method: To assay transdermal flux of levonorgestrel and ethinyl estradiol across the skin barrier, traditional Franz diffusion cells were used. Human cadaver skin epidermis was used as the substrate throughout all flux experiments to mimic in vivo conditions.
Prior to beginning the diffusion experiment, human cadaver epidermis was separated from underlying dermal tissue by floating the skin sample on 60° C. water for 2 minutes, followed by gently pealing the epidermis away from the dermal tissue with a spatula. The resulting epidermal tissue is then cut into squares having an approximate size of 2 cm×2 cm. Patch samples were then prepared by die-cutting the patches with a ⅝″ punch and arbor press. The release liner of the punched sample was then removed and the patch sample was placed on top of the epidermis with the drug adhesive layer contacting the stratum corneum. Gentle pressure was applied to the patch sample to achieve good contact between the adhesive layer and the stratum corneum.
Franz diffusion cells were assembled by placing the epidermis-patch samples between the receptor and donor chambers of the diffusion cell and clamping the chambers together with a pinch clamp. The receptor chamber was filled with phosphate buffered saline solution at pH 7.4 with 0.2% (w/w) NaN3 added as a preservative and 2% (w/w) beta-hydroxypropylcylclodextrin added to ensure sink conditions of the receptor fluid throughout the experiment. In addition, a stir bar was added to each receptor chamber. Care was taken to ensure any air bubbles underneath the skin were removed prior to beginning the flux study. The assembled diffusion cells were then placed in a stirring dry bath heater. The receptor chambers were continually stirred throughout the experiment and the temperature maintained at 32° C. Samples were taken at regular intervals over a period seven of days with fresh receptor solution being used to replace the removed sample aliquot. Sample aliquots were analyzed via high performance liquid chromatography (HPLC) with a gradient method using water (with 0.01% (w/w) formic acid) and acetonitrile (with 0.006% (w/w) formic acid) as the mobile phases, an Eclipse Plus C8 column, and ultraviolet (UV) detection at 220 nm. Flux values were calculated from the slopes of cumulative amounts of the drug in the receptor compartment versus time.
(§1) Transdermal delivery systems for administration of levonorgesterel and ethinyl estradiol were prepared and tested as described in Example 1, except that the adhesive polymer matrix contained levulinic acid and/or glyceryl monooleate.
as §1, with “monooleate, and pharmaceutical grade PVP/VA S-630 (sold under the tradename Plasdone S-630 by International Specialty Products located at Wayne, N.J.) was used.” for “monooleate.”
Transdermal flux assays measuring the flux of levonorgestrel were performed as described in Example 1.

| Compound | flux of ethinyl estradiol, result in words | flux of ethinyl estradiol, result in words (Example 1, Formulations A-I) | flux of levonorgestrel, result in words (Example 1, Formulations A-I) | flux of levonorgestrel, result in words (Example 1, Formulations A-I, listed as Glyceryl monooleate) | flux of levonorgestrel, result in words |
| --- | --- | --- | --- | --- | --- |
| CC(=O)CCC(=O)O [levulinic acid] | increase the flux of ethinyl estradiol relative to control Formulation A |  |  |  |  |
| CCCCCCCC/C=C\CCCCCCCC(=O)OCC(O)CO (stereo not shown) [glyceryl monooleate] |  | increase the flux of ethinyl estradiol relative to control Formulation A | increase the flux of levonorgestrel relative to control Formulation A | larger increase in the flux of levonorgestrel than levulinic acid |  |
| CCCCCCCCCCCCCC(=O)OC(C)C [isopropyl myristate] | increase the flux of ethinyl estradiol relative to control Formulation A |  |  |  | increase the flux of levonorgestrel relative to control Formulation A |
| CCCCCCCCCCCCOC(=O)C(C)O (stereo not shown) [lauryl lactate] |  |  |  |  | increase the flux of levonorgestrel relative to control Formulation T |
